Consider eight compounds from patent US20220324835A1 (Nurix Therapeutics, Inc., priority 2018, published 2022).

Structures are written as SMILES. Bounds are passed on as bounds.

For test [1], the target named is T1, Cbl-b (Homo sapiens, UniProt Q13191). Description: Cbl-b inhibition assay (Cbl-b activity assay, FRET, Biological Example 1; 100 mM NaCl, 60 nM Src kinase). The class given is biochemical. As to conditions: upper bound stated in text lists; read-out: IC50 values in the Cbl-b inhibition assay of Biological Example 1. The essentials: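 Steps: Src kinase phosphorylates N-terminal biotinylated Avi-tagged Cbl-b; phosphorylated Cbl-b binds Bodipy-fluorescein ubiquitin-loaded UbcH5B; streptavidin-terbium on Cbl-b sits close to the fluorescein label, producing FRET. Inhibitors block UbcH5B-Ub binding.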
T1 sequence (Q13191 36-427): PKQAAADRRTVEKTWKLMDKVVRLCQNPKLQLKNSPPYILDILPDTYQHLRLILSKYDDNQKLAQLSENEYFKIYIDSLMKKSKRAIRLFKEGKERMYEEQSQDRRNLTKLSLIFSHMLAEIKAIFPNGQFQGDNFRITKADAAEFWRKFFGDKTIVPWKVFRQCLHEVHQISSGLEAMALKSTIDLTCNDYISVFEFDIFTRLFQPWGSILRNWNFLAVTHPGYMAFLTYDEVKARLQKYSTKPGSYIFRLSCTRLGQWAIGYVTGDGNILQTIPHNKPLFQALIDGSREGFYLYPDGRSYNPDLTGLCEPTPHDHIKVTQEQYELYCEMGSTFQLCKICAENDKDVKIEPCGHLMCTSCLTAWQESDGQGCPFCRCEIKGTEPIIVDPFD

Test [2] relates to T-cell. Description: IL-2 secretion from T-cells co-stimulated with anti-CD3 and anti-CD28 antibody (Biological Example 2). The class given is cell-based, human. To be noted: Homo sapiens, T-cell, primary human total T-cells, baseline = anti-CD3/anti-CD28 stimulated cells without inhibitor, read-out: IL-2 secretion, Anti-CD3/Anti-CD28 stimulation, fold change over baseline; for fold induction at 0.3 µM: 0.3 μM compound; for fold induction at 1 µM: 1 μM compound; for fold induction at 4 µM: 4 μM compound. The essentials:
(§1)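 T-cells were stimulated with anti-CD3 antibody alone or with anti-CD28 antibody, in the presence or absence of Cbl-b inhibitor. IL-2 secretion or CD25 surface staining was measured, and values expressed as fold over the uninhibited baseline […].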

For test [3], the system named is T-cell. Description: CD25 cell surface staining on T-cells co-stimulated with anti-CD3 and anti-CD28 antibody (Biological Example 2). The class given is cell-based, human. To be noted: Homo sapiens, T-cell, primary human total T-cells, baseline = anti-CD3/anti-CD28 stimulated cells without inhibitor, read-out: CD25 staining, Anti-CD3/Anti-CD28 stimulation, fold change over baseline; for fold induction at 0.3 µM: 0.3 μM compound; for fold induction at 1 µM: 1 μM compound; for fold induction at 4 µM: 4 μM compound. The essentials:
as §1

The target in test [4] is T1, Cbl-b. Kind of test: Cbl-b activity assay (Cbl-b inhibition assay), TR-FRET of Cbl-b interaction with UbcH5B-Ub. The class given is biochemical. As to conditions: assay buffer with 100 mM NaCl, 60 nM Src kinase; read-out: Cbl-b activity IC50. The essentials:
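UbcH5B (C85K) conjugated to N-terminally Bodipy-Fluorescein-labeled ubiquitin served as the fluorescent partner. After compound preincubation, Src kinase (60 nM) with 1 mM ATP and 5 mM MgCl2 (final) was added for 1.5 h, followed by a further 1 h incubation. Some values were obtained with 50 mM NaCl and 30 nM Src.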

A further test deals with Cbl-b (residues 36-427) (Homo sapiens, UniProt Q13191). Kind of test: Cbl-b binding assay (SPR, Biacore T200). To be noted: 20° C., 1:1 binding model. The essentials: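 Steps: capture protein on NeutrAvidin surface; inject compound dilutions (8 or 10 points from 100 or 50 μM) 50 s; allow 90-180 s dissociation; regenerate 20 s with 0.3 M NaCl. Runs at 20° C in HEPES pH 7.5/100 mM NaCl/2% DMSO; 1:1 fitting.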
Chain of Cbl-b (residues 36-427) (Q13191 36-427): as above

The subject of test [5] is T-cell. Kind of test: IL-2 secretion from T-cells stimulated with anti-CD3 antibody alone (Biological Example 2). As to conditions: primary human total T-cells, read-out: IL-2 secretion, Anti-CD3 stimulation, fold change over baseline; for fold induction at 1 µM: 1 μM compound; for fold induction at 8 µM: 8 μM compound. It is filed as cell-based.
Test [6] relates to T-cell. Description: CD25 cell surface staining on T-cells stimulated with anti-CD3 antibody alone (Biological Example 2). It is filed as cell-based. To be noted: primary human total T-cells, baseline = anti-CD3/anti-CD28 stimulated cells without inhibitor, read-out: CD25 staining, Anti-CD3 stimulation, fold change over baseline; for fold induction at 1 µM: 1 μM compound; for fold induction at 8 µM: 8 μM compound.

On to `C[C@H](Cc1nncn1C)c1cccc(N2Cc3c(cc(-n4cccn4)cc3C(F)(F)F)C2=O)c1` [Compound 384, (R)-2-(3-(1-(4-methyl-4H-1,2,4-triazol-3-yl)propan-2-yl)phenyl)-6-(1H-pyrazol-1-yl)-4-(trifluoromethyl)isoindolin-1-one], for which the IC50 at Cbl-b [1] is at most 100 nM; at Cbl-b [4], below 100 nM. The fold induction at 0.3 µM fell in the range of 2.51 to 5 with T-cell [2] and 1.31 to 1.5 in the test with T-cell [3]. The fold induction at 1 µM with T-cell [2] was above 7.5; in the test on T-cell [3], 1.51 to 1.75; in the test on T-cell [5] it was above 0.201; with T-cell [6], above 1. The fold induction at 4 µM in the test with T-cell [2] was above 7.5; in the test with T-cell [3], 1.51 to 1.75. The compound also registered a Kd on Cbl-b (residues 36-427) below 100 nM. For the same compound, the values for the fold induction at 8 µM with T-cell [5] and in the test on T-cell [6] were above 0.201 and above 1, respectively.
Take `C[C@H](Cc1nncn1C)c1cccc(N2Cc3c(cc(CO)cc3C(F)(F)F)C2=O)c1` [Compound 392, (R)-6-(hydroxymethyl)-2-(3-(1-(4-methyl-4H-1,2,4-triazol-3-yl)propan-2-yl)phenyl)-4-(trifluoromethyl)isoindolin-1-one]: the IC50 on Cbl-b [1] is at most 100 nM; on Cbl-b [4], below 100 nM. In addition, the fold induction at 0.3 µM is 2.51 to 5 with T-cell [2] and 1.01 to 1.3 in the test on T-cell [3]. Besides, the fold induction at 1 µM with T-cell [2] was 5 to 7.5; in the test on T-cell [3], 1.01 to 1.3; with T-cell [5], 0.151 to 0.2; in the test with T-cell [6] it was above 1. In addition, the fold induction at 4 µM with T-cell [2] is above 7.5; with T-cell [3] it was 1.31 to 1.5. Besides, the Kd on Cbl-b (residues 36-427) was below 100 nM. For the same compound, the fold induction at 8 µM in the test with T-cell [5] was above 0.201; in the test on T-cell [6], above 1.
On to `C[C@H](Cc1nncn1C)c1cccc(N2Cc3c(cc(CN4C[C@@H](O)[C@H](F)C4)cc3C(F)(F)F)C2=O)c1` [Compound 395, 6-(((3R,4R)-3-fluoro-4-hydroxypyrrolidin-1-yl)methyl)-2-(3-((R)-1-(4-methyl-4H-1,2,4-triazol-3-yl)propan-2-yl)phenyl)-4-(trifluoromethyl)isoindolin-1-one], for which the IC50 on Cbl-b [1] is at most 100 nM; at Cbl-b [4], below 100 nM. For the same compound, the fold induction at 0.3 µM in the test with T-cell [2] fell in the range of 2.51 to 5; in the test on T-cell [3] it was 1.01 to 1.3. For the same compound, the fold induction at 1 µM in the test on T-cell [2] was above 7.5; in the test with T-cell [3], 1.31 to 1.5; in the test with T-cell [5], above 0.201; with T-cell [6] it was above 1. In addition, the figures for the fold induction at 4 µM in the test on T-cell [2] and in the test on T-cell [3] were above 7.5 and 1.31 to 1.5, respectively. This compound also registered a Kd at Cbl-b (residues 36-427) below 100 nM. Besides, the fold induction at 8 µM in the test on T-cell [5] was above 0.201; in the test with T-cell [6] it was above 1.
As to `C[C@H](Cc1nncn1C)c1cccc(N2Cc3c(cc(CN4CCC(F)(F)C4)cc3C(F)(F)F)C2=O)c1` [Compound 396, (R)-6-((3,3-difluoropyrrolidin-1-yl)methyl)-2-(3-(1-(4-methyl-4H-1,2,4-triazol-3-yl)propan-2-yl)phenyl)-4-(trifluoromethyl)isoindolin-1-one], the IC50 at Cbl-b [1] is at most 100 nM; on Cbl-b [4], below 100 nM. The values for the fold induction at 0.3 µM in the test with T-cell [2] and in the test with T-cell [3] were 2.51 to 5 and 1.01 to 1.3, respectively. For the same compound, the fold induction at 1 µM is 5 to 7.5 with T-cell [2], 1.01 to 1.3 with T-cell [3], 0.151 to 0.2 in the test with T-cell [5] and above 1 in the test with T-cell [6]. For the same compound, the figures for the fold induction at 4 µM with T-cell [2] and in the test with T-cell [3] were above 7.5 and 1.31 to 1.5, respectively. The same compound displayed a Kd on Cbl-b (residues 36-427) below 100 nM. Further, the fold induction at 8 µM in the test with T-cell [5] was above 0.201; in the test with T-cell [6], above 1.
Regarding `C[C@H](Cc1nncn1C)c1cccc(N2Cc3c(cc(CN4CC[C@@H](F)C4)cc3C(F)(F)F)C2=O)c1` [Compound 400, 6-(((R)-3-fluoropyrrolidin-1-yl)methyl)-2-(3-((R)-1-(4-methyl-4H-1,2,4-triazol-3-yl)propan-2-yl)phenyl)-4-(trifluoromethyl)isoindolin-1-one], the IC50 on Cbl-b [1] is at most 100 nM; on Cbl-b [4], below 100 nM. For the same compound, the fold induction at 0.3 µM in the test on T-cell [2] lay in the range of 5 to 7.5; in the test with T-cell [3], 1.01 to 1.3. Moreover, the fold induction at 1 µM was above 7.5 in the test on T-cell [2], 1.01 to 1.3 with T-cell [3], above 0.201 in the test on T-cell [5] and above 1 with T-cell [6]. The fold induction at 4 µM in the test on T-cell [2] is above 7.5; in the test with T-cell [3], 1.31 to 1.5. In addition, the Kd at Cbl-b (residues 36-427) is below 100 nM. Moreover, the results for the fold induction at 8 µM in the test with T-cell [5] and with T-cell [6] were above 0.201 and above 1, respectively.
Turning to `C[C@H](Cc1nncn1C)c1cccc(N2Cc3c(cc(CN4CC(F)C4)cc3C(F)(F)F)C2=O)c1` [Compound 401, (R)-6-((3-fluoroazetidin-1-yl)methyl)-2-(3-(1-(4-methyl-4H-1,2,4-triazol-3-yl)propan-2-yl)phenyl)-4-(trifluoromethyl)isoindolin-1-one], the values for the IC50 on Cbl-b [1] and at Cbl-b [4] were at most 100 nM and below 100 nM, respectively. The fold induction at 0.3 µM in the test with T-cell [2] is 2.51 to 5; with T-cell [3], 1.01 to 1.3. For the same compound, the fold induction at 1 µM was above 7.5 in the test with T-cell [2], 1.01 to 1.3 with T-cell [3], 0.151 to 0.2 in the test with T-cell [5] and above 1 in the test on T-cell [6]. Also, the fold induction at 4 µM is above 7.5 in the test with T-cell [2] and 1.31 to 1.5 with T-cell [3]. At Cbl-b (residues 36-427), the Kd was below 100 nM. Further, the fold induction at 8 µM in the test on T-cell [5] is above 0.201; in the test on T-cell [6], above 1.
Consider `C[C@H](Cc1nncn1C)c1cccc(N2Cc3c(cc(CN4CC(F)(F)C4)cc3C(F)(F)F)C2=O)c1` [Compound 402, (R)-6-((3,3-difluoroazetidin-1-yl)methyl)-2-(3-(1-(4-methyl-4H-1,2,4-triazol-3-yl)propan-2-yl)phenyl)-4-(trifluoromethyl)isoindolin-1-one], for which the IC50 on Cbl-b [1] was at most 100 nM; on Cbl-b [4], below 100 nM. Also, the results for the fold induction at 0.3 µM in the test with T-cell [2] and in the test with T-cell [3] were 5 to 7.5 and 1.01 to 1.3, respectively. For the same compound, the fold induction at 1 µM in the test on T-cell [2] is above 7.5; in the test with T-cell [3], 1.31 to 1.5; with T-cell [5], 0.151 to 0.2; with T-cell [6], above 1. Besides, the figures for the fold induction at 4 µM in the test with T-cell [2] and in the test with T-cell [3] were above 7.5 and 1.31 to 1.5, respectively. Further, on Cbl-b (residues 36-427), the Kd was below 100 nM. Moreover, the figures for the fold induction at 8 µM in the test on T-cell [5] and with T-cell [6] were above 0.201 and above 1, respectively.
With `C[C@H](Cc1nncn1C)c1cccc(N2Cc3c(cc([C@@H](C)N4CC[C@H](F)C4)cc3C(F)(F)F)C2=O)c1` [Compound 403, 6-((R)-1-((S)-3-fluoropyrrolidin-1-yl)ethyl)-2-(3-((R)-1-(4-methyl-4H-1,2,4-triazol-3-yl)propan-2-yl)phenyl)-4-(trifluoromethyl)isoindolin-1-one], the IC50 is at most 100 nM at Cbl-b [1] and below 100 nM on Cbl-b [4]. Moreover, the fold induction at 0.3 µM lay in the range of 5 to 7.5 in the test with T-cell [2] and 1.01 to 1.3 in the test on T-cell [3]. The fold induction at 1 µM in the test on T-cell [2] is above 7.5; in the test on T-cell [3] it was 1.01 to 1.3; in the test with T-cell [5], 0.151 to 0.2; in the test with T-cell [6], above 1. The fold induction at 4 µM in the test on T-cell [2] is above 7.5; in the test on T-cell [3] it was 1.31 to 1.5. Also, at Cbl-b (residues 36-427), the Kd is below 100 nM. The fold induction at 8 µM in the test with T-cell [5] is above 0.201; in the test with T-cell [6], above 1.
